How the values were obtained:
[1] = system: rabbit serum obtained by immunizing a rabbit with the SARS-CoV strain Frankfurt 1; format: binding; set-up: Binding of a rabbit serum to linear peptides / Binding of a rabbit serum to looped peptides / Rabbit serum linear peptides / Rabbit serum looped peptides / Binding of a rabbit serum to linear peptides of protein N of SARS-CoV Urbani (Rabbit serum linear peptides) / Binding of a rabbit serum to looped/cyclic peptides of protein N of SARS-CoV Urbani (Rabbit serum looped peptides): unit not given here
[2] = system: antibodies in sera from SARS patients (sera 1a, 1b, 2, 6, 37, 62, London, SARS-yellow, SARS-green); format: binding, human; set-up: Binding of serum 6 to linear peptides of protein X1 of SARS-CoV Urbani / Binding of serum 37 to linear peptides of protein X1 of SARS-CoV Urbani / Binding of serum 6 to looped/cyclic peptide (PEPSCAN-ELISA) / Binding of serum 37 to looped/cyclic peptide (PEPSCAN-ELISA) / Binding of serum 37 to looped/cyclic peptides of protein X1 of SARS-CoV Urbani / Binding of serum 6 to linear peptides of protein X2 / Binding of serum 37 to linear peptides of protein X2 / Binding of serum 37 to looped/cyclic peptides of protein X2 of SARS-CoV Urbani / Binding of serum 6 to linear peptides of protein M of SARS-CoV Urbani / Binding of serum 37 to linear peptides of protein M of SARS-CoV Urbani / Binding of serum 6 to looped/cyclic peptides of protein M of SARS-CoV Urbani / Binding of serum 37 to looped/cyclic peptides of protein M of SARS-CoV Urbani / Binding of serum 6 to linear peptides of protein X3 of SARS-CoV Urbani / Binding of serum 37 to linear peptides of protein X3 of SARS-CoV Urbani / Binding of serum 37 to looped/cyclic peptides of protein X3 of SARS-CoV Urbani / Binding of serum 6 to linear peptides of protein X4 of SARS-CoV Urbani / Binding of serum 37 to linear peptides of protein X4 of SARS-CoV Urbani / Binding of serum 37 to looped/cyclic peptides of protein X4 of SARS-CoV Urbani / Binding of serum 6 to linear peptides of protein X5 of SARS-CoV Urbani / Binding of serum 37 to linear peptides of protein X5 of SARS-CoV Urbani / Binding of serum 37 to looped/cyclic peptides of protein X5 of SARS-CoV Urbani / Binding of serum 6 to linear peptides of protein N of SARS-CoV Urbani / Binding of serum 37 to linear peptides of protein N of SARS-CoV Urbani / Binding of serum 6 to linear peptide (PEPSCAN-ELISA) / Binding of serum 1a to looped/cyclic peptides of protein N of SARS-CoV Urbani / Binding of serum 1b to looped/cyclic peptides of protein N of SARS-CoV Urbani / Binding of serum 2 to looped/cyclic peptides of protein N of SARS-CoV Urbani / Binding of serum 6 to looped/cyclic peptides of protein N of SARS-CoV Urbani / Binding of serum 37 to looped/cyclic peptides of protein N of SARS-CoV Urbani / Binding of serum 62 to looped/cyclic peptides of protein N of SARS-CoV Urbani / Binding of serum London to looped/cyclic peptides of protein N of SARS-CoV Urbani / Binding of serum SARS-green to looped/cyclic peptides of protein N of SARS-CoV Urbani: unit not given here
[3] = system: control sera (pooled serum of ten healthy LUMC hospital workers; commercial negative donor pooled serum from the Dutch bloodbank); format: binding, human

Sequence	Binding of a rabbit serum to linear peptides [1]	Binding of a rabbit serum to looped peptides [1]	Binding of serum 1a to looped/cyclic peptides of protein X2 of SARS-CoV Urbani [2]	Binding of serum 1b to looped/cyclic peptides of protein X2 of SARS-CoV Urbani [2]	Binding of serum 2 to looped/cyclic peptides of protein X2 of SARS-CoV Urbani [2]	Binding of serum 6 to looped/cyclic peptides of protein X2 of SARS-CoV Urbani [2]	Binding of serum 37 to looped/cyclic peptides of protein X2 of SARS-CoV Urbani [2]	Binding of serum 62 to looped/cyclic peptides of protein X2 of SARS-CoV Urbani [2]	Binding of serum London to looped/cyclic peptides of protein X2 of SARS-CoV Urbani [2]	Binding of serum SARS-green to looped/cyclic peptides of protein X2 of SARS-CoV Urbani [2]	Binding of serum SARS-yellow to looped/cyclic peptides of protein X2 of SARS-CoV Urbani [2]	Binding of Control Serum Blood-Bank to Looped peptides [3]	Binding of Control serum Blood-bank to linear peptides [3]	Binding of Control serum LUMC to linear peptides [3]	Binding of Control serum LUMC to looped peptides [3]	further results
KVSTNLCTHSFRKKQ	0.3	0.1	0.4	0.3	0.5	0.5	0.4	0.6	0.2	0.3	0.5	0.4	1.0	0.8	0.7	Recognition of the peptide by sera of SARS-CoV infected individuals, and form (linear, looped/cyclic) in which it is recognized [2]: recognized in linear form
KVTAFQHQNSKKTTK	0.6	0.2	0.2	0.2	0.0	0.0	0.2	0.3	0.1	0.0	0.1	0.3	0.2	0.3	0.3	Binding of serum 1a to linear peptides of protein X2 [2]: 0.3; Binding of serum 1b to linear peptides of protein X2 [2]: 0.2; Binding of serum 2 to linear peptides of protein X2 [2]: 0.2; Binding of serum 6 to linear peptides of protein X2 [2]: 0.2; Binding of serum 37 to linear peptides of protein X2 [2]: 0.3; Binding of serum 62 to linear peptides of protein X2 [2]: 0.2; Binding of serum London to linear peptides of protein X2 [2]: 0.1; Binding of serum SARS-green to linear peptides of protein X2 [2]: 0.0; Binding of serum SARS-yellow to linear peptides of protein X2 [2]: 0.4
